Data as given in ChEMBL document CHEMBL5126521, “Analgesic Opioid Ligand Discovery Based on Nonmorphinan Scaffolds Derived from Natural Sources” (J Med Chem, 2022).
Bridge positions count the residues as written; N and C are the ends. Square brackets hold non-standard residues; d marks the D form. Peptide text beside a SMILES is read from it.

How the values were obtained:
Rattus norvegicus = assay: Antinociceptive activity in rat administered icv by tail pressure test relative to control; format: functional; design: concentration or dose not given beside the values
[1] = Stability in mouse serum assessed as half life; format: ADME, cell-free
[2] = Stability in mouse brain homogenate assessed as half life; format: ADME, tissue-based
[3] = Stability in rat brain homogenate assessed as compound remaining measured after 90 mins relative to control; format: ADME, tissue-based; conditions: read-out: Stability
Mu-type opioid receptor [4] = target: T1, Mu-type opioid receptor (Homo sapiens, UniProt P35372); assay: Agonist activity at human recombinant MOP expressed in CHO cells by calcium mobilization assay; format: functional, cell-based
T1 sequence (P35372 whole entry): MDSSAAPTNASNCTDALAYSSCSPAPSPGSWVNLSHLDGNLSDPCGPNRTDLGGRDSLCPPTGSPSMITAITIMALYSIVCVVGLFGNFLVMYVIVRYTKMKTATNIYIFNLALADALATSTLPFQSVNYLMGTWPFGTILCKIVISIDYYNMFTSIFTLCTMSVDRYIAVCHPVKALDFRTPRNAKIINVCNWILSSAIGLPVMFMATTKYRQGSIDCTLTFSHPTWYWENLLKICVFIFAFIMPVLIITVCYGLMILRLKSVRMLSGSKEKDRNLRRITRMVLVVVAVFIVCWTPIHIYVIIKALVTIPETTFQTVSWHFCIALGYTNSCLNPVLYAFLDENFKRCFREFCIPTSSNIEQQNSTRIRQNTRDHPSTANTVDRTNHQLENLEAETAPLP

Mus musculus [5] = assay: Antinociceptive activity in Swiss albino mouse assessed tail flick response in warm water administered icv; format: functional
[6] = target: Delta-type opioid receptor (Rattus norvegicus, UniProt P33533); assay: Inhibition of Wistar rat brain membrane DOP; format: cell membranes
Delta-type opioid receptor (Rattus norvegicus, UniProt P33533), sequence (P33533 whole entry): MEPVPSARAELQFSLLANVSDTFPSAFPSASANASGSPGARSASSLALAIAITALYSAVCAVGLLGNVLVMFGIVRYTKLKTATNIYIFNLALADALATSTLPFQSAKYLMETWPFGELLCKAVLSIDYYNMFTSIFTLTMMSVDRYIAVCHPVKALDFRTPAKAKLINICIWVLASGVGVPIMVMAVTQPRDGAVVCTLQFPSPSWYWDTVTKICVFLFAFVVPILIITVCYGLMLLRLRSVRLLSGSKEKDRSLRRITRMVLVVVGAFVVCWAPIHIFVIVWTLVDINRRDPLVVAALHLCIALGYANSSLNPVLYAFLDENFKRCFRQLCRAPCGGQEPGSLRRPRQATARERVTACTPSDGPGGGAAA

Mu-type opioid receptor [7] = target: Mu-type opioid receptor (Rattus norvegicus, UniProt P33535); assay: Inhibition of Wistar rat brain membrane MOP; format: cell membranes
Mu-type opioid receptor (Rattus norvegicus, UniProt P33535), sequence (P33535 whole entry): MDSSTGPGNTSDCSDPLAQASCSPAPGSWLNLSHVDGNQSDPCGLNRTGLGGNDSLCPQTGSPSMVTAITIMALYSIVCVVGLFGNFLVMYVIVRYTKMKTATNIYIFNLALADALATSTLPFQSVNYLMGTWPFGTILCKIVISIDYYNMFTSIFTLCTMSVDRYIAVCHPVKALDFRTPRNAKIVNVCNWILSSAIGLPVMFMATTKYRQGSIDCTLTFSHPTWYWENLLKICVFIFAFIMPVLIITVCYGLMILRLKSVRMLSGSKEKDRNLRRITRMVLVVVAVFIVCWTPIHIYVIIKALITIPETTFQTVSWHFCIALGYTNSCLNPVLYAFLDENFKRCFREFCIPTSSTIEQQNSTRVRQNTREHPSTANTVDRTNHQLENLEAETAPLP

Mu-type opioid receptor [8] = target: Mu-type opioid receptor (Cavia porcellus, UniProt P97266); assay: Antagonist activity at guinea pig ileum MOP; format: functional, tissue-based
Mu-type opioid receptor (Cavia porcellus, UniProt P97266), sequence (P97266 whole entry): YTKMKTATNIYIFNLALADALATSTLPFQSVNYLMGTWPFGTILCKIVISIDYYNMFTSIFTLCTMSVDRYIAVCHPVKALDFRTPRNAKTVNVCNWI

Mus musculus [9] = assay: Antinociceptive activity in mouse administered icv; format: functional
Mu-type opioid receptor [10] = target: T1, Mu-type opioid receptor; assay: Binding affinity to MOP (unknown origin)
[11] = target: T2, Delta-type opioid receptor (Homo sapiens, UniProt P41143); assay: Binding affinity to DOP (unknown origin)
T2 sequence (P41143 whole entry): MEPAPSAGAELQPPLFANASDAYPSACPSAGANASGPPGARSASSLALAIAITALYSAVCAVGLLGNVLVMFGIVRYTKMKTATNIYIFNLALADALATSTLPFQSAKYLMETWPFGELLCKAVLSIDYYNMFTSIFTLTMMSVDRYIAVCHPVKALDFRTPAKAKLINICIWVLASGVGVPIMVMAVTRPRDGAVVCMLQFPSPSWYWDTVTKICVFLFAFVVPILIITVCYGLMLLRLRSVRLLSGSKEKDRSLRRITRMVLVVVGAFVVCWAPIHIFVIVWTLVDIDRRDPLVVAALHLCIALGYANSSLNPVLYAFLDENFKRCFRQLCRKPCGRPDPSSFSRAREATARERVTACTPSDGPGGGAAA

Mu-type opioid receptor [12] = target: Mu-type opioid receptor (Mus musculus, UniProt P42866); assay: Antagonist activity at mouse vas deferns MOP; format: functional
Mu-type opioid receptor (Mus musculus, UniProt P42866), sequence (P42866 whole entry): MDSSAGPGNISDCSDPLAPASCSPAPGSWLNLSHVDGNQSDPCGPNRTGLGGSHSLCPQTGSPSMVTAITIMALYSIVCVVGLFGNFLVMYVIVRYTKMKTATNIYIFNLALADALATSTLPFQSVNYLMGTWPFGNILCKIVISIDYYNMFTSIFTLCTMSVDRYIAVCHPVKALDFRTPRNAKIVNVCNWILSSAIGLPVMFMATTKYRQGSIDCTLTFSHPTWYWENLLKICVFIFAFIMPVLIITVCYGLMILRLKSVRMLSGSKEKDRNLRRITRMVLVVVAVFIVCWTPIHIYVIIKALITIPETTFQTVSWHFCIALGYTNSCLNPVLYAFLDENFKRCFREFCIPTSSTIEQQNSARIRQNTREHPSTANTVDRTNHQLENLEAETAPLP

Mu-type opioid receptor [13] = target: T1, Mu-type opioid receptor; assay: Displacement of [3H]DAMGO from MOP (unknown origin) stably expressed in HEK293 cells by liquid scintillation counter analysis; format: cell-based
[14] = target: T2, Delta-type opioid receptor; assay: Displacement of [3H]DPDPE from DOP (unknown origin) stably expressed in HEK293 cells by liquid scintillation counter analysis; format: cell-based
Mu-type opioid receptor [15] = target: T1, Mu-type opioid receptor; assay: Agonist activity at MOP (unknown origin) stably expressed in HEK293 cells assessed as forskolin stimulated cAMP accumulation incubated for 30 mins by radioactivity based scintillation counter analysis; format: functional, cell-based
Mu-type opioid receptor [16] = target: T1, Mu-type opioid receptor; assay: Agonist activity at MOP (unknown origin) stably expressed in HEK293 cells assessed as forskolin stimulated cAMP accumulation incubated for 30 mins by radioactivity based scintillation counter analysis relative to control; format: functional, cell-based; conditions: filed as agonist

For `C[C@@H](NC(=O)[C@@H](N)Cc1ccc(O)cc1)C(=O)N[C@@H](Cc1ccccc1)C(=O)NCC(=O)N[C@@H](Cc1ccc(O)cc1)C(=O)N1CCC[C@H]1C(=O)N[C@@H](CO)C(N)=O`, the Activity (Rattus norvegicus) was <0.05%.

With `C=C(C(=O)O)[C@@H](N)c1ccccc1` the half-life [1] was ≥ 5 h and the half-life [2] was ≥ 5 h.

In the case of `NC(=O)[C@@H]1CC(=O)NCCCC[C@@H](NC(=O)[C@@H](N)Cc2ccc(O)cc2)C(=O)N[C@@H](c2ccccc2)C(=O)N[C@@H](c2ccc(F)cc2)C(=O)N1`, the remaining at […] [3] is reported as 93%.

For `NC(=O)[C@@H]1CC(=O)NCCCC[C@@H](NC(=O)[C@@H](N)Cc2ccc(O)cc2)C(=O)N[C@@H](c2ccccc2)C(=O)N[C@@H](c2ccc(C(F)(F)F)cc2)C(=O)N1`, the remaining at […] [3] was 93%.

Work on `Cc1cc(O)cc(C)c1C[C@H](N)C(=O)N[C@@H]1CCCCNC(=O)C[C@@H](C(N)=O)NC(=O)[C@H](c2ccccc2)NC(=O)[C@H](c2ccc(C(F)(F)F)cc2)NC1=O` yielded a remaining at […] [3] of 93%.

In the case of `CN[C@H](C)C(=O)O`, the half-life [1] is reported as ≥ 5 h and the half-life [2] is reported as ≥ 5 h.

`Cc1ccccc1[C@@H]1NC(=O)[C@H](NC(=O)[C@@H](N)Cc2c(C)cc(O)cc2C)CCCCNC(=O)C[C@@H](C(N)=O)NC(=O)[C@H](c2ccccc2)NC1=O` showed an EC50 (Mu-type opioid receptor [4]) of 5.62 nM, an ED50 (Mus musculus [5]) of 0.03 µg and an IC50 [6] of 198 nM. The IC50 (Mu-type opioid receptor [7]) was 1.09 nM and the remaining at […] [3] was 85%.

`N=C(N)NCCC[C@@H](NC(=O)[C@@H](N)Cc1ccc(O)cc1)C(N)=O` showed an IC50 (Mu-type opioid receptor [8]) of 44000 nM and an ED50 (Mus musculus [9]) of 47000 pmol.

`N[C@@H](Cc1ccc(O)cc1)C(=O)N[C@@H]1CCCCNC(=O)[C@H](Cc2ccccc2)NC(=O)[C@H](Cc2c[nH]c3ccccc23)NC1=O` (H-Y[dK]WF; lactam 2-C) gave a Ki (Mu-type opioid receptor [10]) of 0.25 nM and a Ki [11] of 38 nM.

In the case of `Cc1ccc([C@@H]2NC(=O)[C@H](c3ccccc3)NC(=O)[C@H](NC(=O)[C@@H](N)Cc3c(C)cc(O)cc3C)CCCCNC(=O)C[C@@H](C(N)=O)NC2=O)cc1`, the EC50 (Mu-type opioid receptor [4]) is reported as 7.76 nM, the ED50 (Mus musculus [5]) is reported as 0.006 µg and the IC50 [6] is reported as 14.9 nM. For the same compound, the IC50 (Mu-type opioid receptor [7]) was 0.02 nM and the remaining at […] [3] was 85%.

`C[C@@H](NC(=O)[C@@H](N)Cc1ccc(O)cc1)C(=O)N[C@@H](Cc1ccccc1)C(=O)NCC(=O)O` (H-Y[dA]FG-OH) gave an Activity (Rattus norvegicus) of 25%, a Ki (Mu-type opioid receptor [10]) of 11.9 nM and a Ki [11] of 1800 nM. The IC50 (Mu-type opioid receptor [8]) was 34.5 nM and the IC50 (Mu-type opioid receptor [12]) was 263 nM.

`Cc1cc(O)cc(C)c1C[C@H](N)C(=O)N[C@@H]1CCCCNC(=O)C[C@@H](C(N)=O)NC(=O)[C@H](c2ccccc2)NC(=O)[C@H](c2ccc(F)cc2)NC1=O` gave a remaining at […] [3] of 93%.

`C=C(C(N)=O)[C@@H](NC(=O)[C@H](Cc1ccccc1)NC(=O)[C@@H](C)N(C)C(=O)[C@@H](N)Cc1c(C)cc(O)cc1C)c1ccco1` showed a Ki (Mu-type opioid receptor [13]) of 0.014 nM, a Ki [14] of 47.2 nM and an EC50 (Mu-type opioid receptor [15]) of 0.00201 nM. The Emax (Mu-type opioid receptor [16]) was 96.9%, the half-life [1] was ≥ 5 h and the half-life [2] was ≥ 5 h.

`Cc1cccc([C@@H]2NC(=O)[C@H](c3ccccc3)NC(=O)[C@H](NC(=O)[C@@H](N)Cc3c(C)cc(O)cc3C)CCCCNC(=O)C[C@@H](C(N)=O)NC2=O)c1` showed an EC50 (Mu-type opioid receptor [4]) of 1.1 nM, an ED50 (Mus musculus [5]) of 0.01 µg and an IC50 [6] of 18.6 nM. The IC50 (Mu-type opioid receptor [7]) was 0.08 nM and the remaining at […] [3] was 85%.

`C=C(C(N)=O)[C@@H](NC(=O)[C@H](Cc1ccccc1)NC(=O)[C@@H](C)N(C)C(=O)[C@@H](N)Cc1c(C)cc(O)cc1C)c1ccccc1` showed a Ki (Mu-type opioid receptor [13]) of 0.0511 nM, a Ki [14] of 55.7 nM and an EC50 (Mu-type opioid receptor [15]) of 0.000515 nM. The Emax (Mu-type opioid receptor [16]) was 95.1%, the half-life [1] was ≥ 5 h and the half-life [2] was ≥ 5 h.

For `C=C(C(N)=O)[C@@H](NC(=O)[C@H](Cc1ccccc1)NC(=O)[C@@H](C)N(C)C(=O)[C@@H](N)Cc1ccc(O)cc1)c1ccccc1`, the Ki (Mu-type opioid receptor [13]) was 0.61 nM, the Ki [14] was 4280 nM and the EC50 (Mu-type opioid receptor [15]) was 4.39 nM. The Emax (Mu-type opioid receptor [16]) was 80.4%.

With `NC(=O)[C@@H]1CC(=O)NCCCC[C@@H](NC(=O)[C@@H](N)Cc2ccc(O)cc2)C(=O)N[C@@H](c2ccc(C(F)(F)F)cc2)C(=O)N[C@@H](c2ccccc2)C(=O)N1` the remaining at […] [3] was 93%.

For `Cc1ccc([C@@H]2NC(=O)[C@H](NC(=O)[C@@H](N)Cc3c(C)cc(O)cc3C)CCCCNC(=O)C[C@@H](C(N)=O)NC(=O)[C@H](c3ccccc3)NC2=O)cc1`, the EC50 (Mu-type opioid receptor [4]) was 2.82 nM, the ED50 (Mus musculus [5]) was 0.39 µg and the IC50 [6] was 156 nM. For the same compound, the IC50 (Mu-type opioid receptor [7]) was 1.43 nM and the remaining at […] [3] was 85%.

For `C[C@@H](NC(=O)[C@@H](N)Cc1ccc(O)cc1)C(=O)N[C@@H](Cc1ccccc1)C(=O)NCC(=O)N[C@@H](Cc1ccc(O)cc1)C(=O)N1CCC[C@H]1C(N)=O`, the Activity (Rattus norvegicus) was 25%, the Ki (Mu-type opioid receptor [10]) was 1.6 nM and the Ki [11] was 320 nM. The IC50 (Mu-type opioid receptor [8]) was 2.7 nM and the IC50 (Mu-type opioid receptor [12]) was 43.2 nM.

For `C=C(C(N)=O)[C@@H](NC(=O)[C@H](Cc1c[nH]c2ccccc12)NC(=O)[C@@H](C)N(C)C(=O)[C@@H](N)Cc1ccc(O)cc1)c1ccccc1`, the Ki (Mu-type opioid receptor [13]) was 0.58 nM, the Ki [14] was 3990 nM and the EC50 (Mu-type opioid receptor [15]) was 2.27 nM. For the same compound, the Emax (Mu-type opioid receptor [16]) was 88.3%.
